Source: patent US10695450B2, “Synthesis of a radioactive agent composition” (LABORATOIRES CYCLOPHARMA, priority 2016, dated 2020)

Test: Radiochemical purity of [^18F]FES stock solution during storage (radiolysis stability)
Assay type: physicochemical
Conditions: for Radio-chemical purity after 10 h storage: sodium ascorbate in purification and formulation (0.45% m/v)
Description: Radiochemical purity is the ratio of the radioactivity of the radionuclide agent under chemical form on the total radioactivity of this same radionuclide. Radiochemical purity of the [^18F]FES stock solution is measured. […]

## C[C@]12CC[C@@H]3c4ccc(O)cc4CC[C@H]3C1C[C@@H]([18F])[C@@H]2O (stereo partly drawn) [[^18F]FES, 16α-[^18F]fluoro-17β-estradiol]
Example 2: sodium ascorbate during purification only, none in final solution, 250 GBq 18-Fluorine, time of storage 0 hours (end of synthesis)
  Radio-chemical purity: 99.3%
Example 2: sodium ascorbate during purification only, none in final solution, 250 GBq 18-Fluorine, time of storage 4 hours
  Radio-chemical purity: 95%
Example 2: sodium ascorbate during purification only, none in final solution, 250 GBq 18-Fluorine, time of storage 8 hours
  Radio-chemical purity: 93%
Example 2: sodium ascorbate during purification only, none in final solution, 250 GBq 18-Fluorine, time of storage 10 hours
  Radio-chemical purity: 92%
Example 3, batch number 1, 79 GBq 18-Fluorine
  Radio-chemical purity after 10 h storage: 98.0%
Example 3, batch number 2, 99 GBq 18-Fluorine
  Radio-chemical purity after 10 h storage: 99.0%
Example 3, batch number 3, 164 GBq 18-Fluorine
  Radio-chemical purity after 10 h storage: 96.7%
Example 3, batch number 4, 195 GBq 18-Fluorine
  Radio-chemical purity after 10 h storage: 97.1%
Example 4: synthesis in the presence of sodium ascorbate, 164 GBq 18-Fluorine, time of storage 0 hours (end of synthesis)
  Radio-chemical purity: 98.0%
Example 4: synthesis in the presence of sodium ascorbate, 164 GBq 18-Fluorine, time of storage 5 hours
  Radio-chemical purity: 96.8%
Example 4: synthesis in the presence of sodium ascorbate, 164 GBq 18-Fluorine, time of storage 10 hours
  Radio-chemical purity: 96.7%
Synthesized in the presence of sodium ascorbate (Example 4, Table 4)
  Decrease of radiochemical purity after 10 hours of storage: 1.3%
Synthesized without antioxidant (Example 2, Table 2)
  Decrease of radiochemical purity after 10 hours of storage: 7.3%
